Assay results reported in a melting point compilation (Tetko et al.; mined from patent text by program, amines drawn as free bases though some values may be those of a salt).

Work on COC(=O)CCc1ccc(Oc2ccc(-c3ccc(C(=N)N)cc3)nn2)cc1 yielded a melting point of 178 to 181 °C. Work on FC(F)(F)c1cc(Cl)c2nc(CCl)cn2c1 yielded a melting point of 75 to 77 °C. For O=C(Nc1nc(C(=O)NC2CN3CCC2CC3)cs1)c1ccc(OCc2ccccc2)cc1 (configuration not stated), the melting point was 196 °C. With CCn1c(C)nc2cc(C(F)(F)F)c(OC)c([N+](=O)[O-])c21 the melting point was 84 to 85.5 °C. Work on CN1C(=O)[C@H](NC(=O)CCc2ccccc2)N=C(c2ccccc2)c2ccccc21 yielded a melting point of 179 °C. For Cc1nc(C(=O)NS(=O)(=O)c2c(C)csc2C)no1, the melting point was 164 °C. O=C(O)COc1c(F)cc(SCCNS(=O)(=O)c2ccccc2)cc1F showed a melting point of 91 to 93 °C. In the case of Cc1sc2c(Br)c3ccccc3c(-c3ccc(OS(=O)(=O)c4scc(C(=O)O)c4O)c(C4CCCC4)c3)c2c1C, the melting point is reported as greater than 230 °C. Work on O=C1C=CC(=O)N1c1cccc(Oc2cccc(Oc3cccc(N4C(=O)C=CC4=O)c3)c2)c1 yielded a melting point of 138 to 140 °C. For COc1ccc(-c2cc(-c3nccs3)c(=O)n(C)c2-c2ccncc2)cc1, the melting point was 224 to 225 °C. N#CC1CN1C(=O)CNC(=O)c1ccccc1 (configuration not stated) gave a melting point of 78 to 81 °C. Compound CCCO[C@@H]1[C@@H](OC)[C@H](C)O[C@@H](ON=Cc2ccc(/C=C/c3ccc(OC(F)(F)F)cc3)cc2)[C@@H]1OC has a melting point of 124 to 132 °C. In the case of CCOC(=O)Cc1c(-c2ccccc2)nn2cccnc12, the melting point is reported as 86 to 89 °C. Compound O=C(O)Cc1ccc(C(=O)C2CCCCC2)cc1 has a melting point of 94 to 95.5 °C. CC(C)(C)c1cc(CCc2ccccc2NC(=O)NCC(C)(C)c2ccccc2F)cc(C(C)(C)C)c1O gave a melting point of 182 to 183 °C. Cc1oc(-c2ccccc2)nc1COc1ccc2c(c1)CCC(CO)=C2 showed a melting point of 141 to 142 °C. With CC/C(=C\CCC(O)(CC)CC)c1cc(CCc2ccc(CO)c(CO)c2)cs1 the melting point was 85 to 86 °C. For Cn1nc(C(=O)O)c(=O)n(C)c1=O, the melting point was 220 to 223 °C. Work on CCOC(=O)c1c(S(N)=O)c2cc(C)ccc2n1C (configuration not stated) yielded a melting point of 118 °C. With O=[N+]([O-])C=C1NCCCS1 the melting point was 76 to 78 °C. O=C(Nc1cccc(O)c1)c1ccc(CSc2ccc(O)cc2)cc1 gave a melting point of 218 to 222 °C. Compound Cc1[nH]c(C(=O)NCCC(=O)O)c(C)c1-c1nc2ccc(C(=O)c3ccccc3)cc2[nH]1 has a melting point of 256 to 258 °C. For CCNc1cc2c(cc1Cl)CCN(C)C[C@@H]2c1ccccc1, the melting point was 120 to 121 °C. With CC1(C)CC(=O)c2c(nc(C3CCCC3)c(C(=O)c3ccc(C(F)(F)F)cc3)c2-c2ccc(F)c(F)c2)C1 the melting point was 210 to 212 °C. In the case of OC[C@H]1C[C@@H]2c3ccccc3Oc3ccc(F)cc3[C@H]2N1, the melting point is reported as 108 to 109 °C. For CN1C(=O)CC[C@]2(C)c3ccc(-c4ncccn4)cc3CC[C@@H]12, the melting point was 160 to 162 °C. With Nc1nc(Cl)c(Cl)nc1[N+](=O)[O-] the melting point was 169 to 170 °C. Work on Cc1cc(C(O)(c2ccc(Cl)cc2)C(F)(F)F)ccc1N (configuration not stated) yielded a melting point of 157 to 160 °C. Work on CCCC1(CCC)CCCc2c(Nc3ccc(Cl)cc3Cl)nc(C)nc21 yielded a melting point of 238 to 244 °C. With CC1(COCCCOc2ccc(C(=O)O)cc2)COC1 the melting point was 102 °C. NC1=NC(N)(c2ccc(S(=O)(=O)NN3CCOCC3)cc2)NC=N1 (configuration not stated) gave a melting point greater than 260 °C. CC(C)CC1CC(=O)c2cc(CC(=O)O)ccc21 (configuration not stated) showed a melting point of 140 to 142 °C. COc1ccc(CCc2ccc(NC(=O)C(=O)C3=C(O)c4ccccc4SC3)cc2)cc1OC gave a melting point of 184 to 185 °C. Work on O=C1Nc2cc(C(F)(F)F)cc(C(F)(F)F)c2C1(O)c1cc(Cl)ccc1O (configuration not stated) yielded a melting point of 191 to 193 °C. With CC(=O)NCC1CN(c2ccc(N3CCN(c4nccs4)CC3)c(F)c2)C(=O)O1 (configuration not stated) the melting point was 205 to 206 °C. Compound CN1C(=O)C(C)(C)N=C(c2ccccc2F)c2cc(N3C(=O)NC(C)(C)C3=O)ccc21 has a melting point of 286 to 287 °C. For O=c1c2c(c3cccnc3n1-c1ccccc1)CCCC2, the melting point was 160 to 162 °C. In the case of COc1cccc(NC(=O)c2ccn3c2CSC3c2cccnc2)n1 (configuration not stated), the melting point is reported as 154 °C. Work on O=C1Nc2cc3c(cc2SC1CCCN1CCN(c2ccc(F)cc2)CC1)OCO3 (configuration not stated) yielded a melting point of 175 to 177 °C. Work on CC(C)OC(=O)Cc1ccc2c(c1)C(=O)c1ccccc1CO2 yielded a melting point of 67 to 68.5 °C. Compound CCOC(=O)Cc1ccc(-c2nc(COc3ccc(COc4nn(-c5ccccc5)cc4/C=C/c4csc(COC(=O)c5ccccc5)n4)cc3OC)c(C)o2)cc1 has a melting point of 116 to 117 °C. CC(=O)Nc1ccc(Sc2cccn3nc(Nc4ccc(C5CCN(C(=O)OC(C)(C)C)CC5)cc4)nc23)cc1 gave a melting point of 226 to 228 °C. In the case of COc1cc(C(=O)Nc2ccc3c(c2)CN(C)CC3)cc(OC)c1OC, the melting point is reported as 158 °C. CCCC(=O)c1cc2c(=O)n(NS(C)(=O)=O)c(=O)[nH]c2cc1C(F)(F)F showed a melting point of 236 to 239 °C. CCNS(=O)(=O)CC(=O)C=C(C)N gave a melting point of 112 to 114 °C. OCc1c(C2CC2)nn2ccc3c(c12)CCO3 showed a melting point of 139 to 140 °C. In the case of COc1ccc(Br)cc1OCc1ccccc1, the melting point is reported as 70 to 71 °C. Work on NC(=O)NC[C@@H]1CCCc2cc(S(=O)(=O)c3cccc(F)c3)cc(F)c21 yielded a melting point of 194 °C. Fc1cc2cc3n(c2cc1Cl)CCNC3 showed a melting point of 195 to 197 °C. With Cc1cc(C#N)cc(C(N)=O)c1NC(=O)c1cc(Br)nn1-c1ncccc1Cl the melting point was greater than 255 °C. With CC(C)(C)OC(=O)N1CCC(C(=O)N2CCc3ccc4[nH]c(=O)c(=O)[nH]c4c3C2)CC1 the melting point was 283 to 286 °C. For Clc1ccc2[nH]c3c(c2c1)CN(CCc1ccc2ccccc2n1)CC3, the melting point was 187 to 190 °C. For Cc1c(NC(=O)c2ccc(OC[C@@H]3CCCO3)cc2)ccc2cc(CN3CCC(C)(O)CC3)n(C)c12, the melting point was 140 to 141 °C. CCOP(=O)(CCCOc1ccc(C(=O)O)cc1)OCC showed a melting point of 107 to 110 °C. Nc1ccc(-c2ccc(N)cc2C(=O)OCCCCCCOc2ccc(-c3ccccc3)cc2)c(C(=O)OCCCCCCOc2ccc(-c3ccccc3)cc2)c1 showed a melting point of 122 to 124 °C. With CC(C)C(C)(C)NC(=S)Nc1cc(Cl)cc(Cl)c1 the melting point was 132 to 134 °C. For CCNc1nc(OCc2ccccc2)nc2c1ncn2C1OC(CO)C(O)C1O (configuration not stated), the melting point was 170 to 171 °C. Cn1c(/C=C/C(=O)Cl)c(-c2ccccc2)c2ccccc2c1=O showed a melting point of 213 to 215 °C. For CC(=O)c1cc(N2CCCC2)ccc1NC(=O)c1cccc(OCc2ccccc2)c1, the melting point was 131 to 133 °C. CN(C)c1nc(N)nc2c1ncn2C1C=CC(CO)C1 (configuration not stated) gave a melting point of 173 to 174 °C. In the case of CCOC(=O)c1cnc2nc(N3CCN(C)CC3)ncc2c1OCC, the melting point is reported as 105 to 108 °C. In the case of COc1ccc(Cn2nc(-c3ccc(C(=O)N4Cc5cccnc5Nc5ccccc54)c(Cl)c3)nc2C)cc1, the melting point is reported as 218 to 221 °C. Work on ON=C1c2ccccc2CCC1Cc1ccccc1 (configuration not stated) yielded a melting point of 123 to 124 °C. Work on OCCc1cccc(Nc2ccc3nc(N[C@@H]4CCc5ccccc54)ccc3c2)c1 yielded a melting point of 109 °C. Work on CCC(CC)N1CSc2cnc(N)nc21 yielded a melting point greater than 232 °C. For CC=CCn1c(C)c(C)c2cnnc(OCc3cccnc3)c21, the melting point was 80 to 81 °C. Cc1c(C(=O)N[C@@H](Cc2ccc(OCc3ccccc3)cc2)C(=O)O)oc2cc(-c3ccc(Cl)cc3)ccc12 gave a melting point of 143 to 144 °C. In the case of CC1(C)CN=C2N(C1)c1ccc(C#N)cc1C21OCCCO1, the melting point is reported as 178 to 184 °C. With COc1ccc(C(=O)Nc2ccc3ccc(C)nc3n2)cc1 the melting point was 119 °C. Work on COC(=O)c1ccc(OC(=O)c2ccccc2C(=O)Oc2ccc(C(=O)OC)cc2)cc1 yielded a melting point of 123 to 125 °C. Work on O=C1CN(C(=O)Cc2ccccc2Cl)N(Cc2ccc(Cl)cc2)C(=O)N1 yielded a melting point of 224 °C. O=C(O)C=NNc1ccc(C(F)(F)F)cc1 gave a melting point of 125 °C. Work on CC(C)N1CCC(NC(=O)Nc2ccccc2CCc2cc(C(C)(C)C)c(O)c(C(C)(C)C)c2)CC1 yielded a melting point of 191 to 193 °C. COc1ccc2oc(-c3ccccc3)c(CC#N)c2c1 showed a melting point of 106 to 107 °C. In the case of COC(=O)c1ccc(C(=O)/C=C/c2cc(-c3cc4ccccc4s3)c(OC)cc2OC)cc1, the melting point is reported as 149 to 151 °C. For Clc1cccc2c1CCCC2c1c[nH]cn1 (configuration not stated), the melting point was 165 to 169 °C. CCOC(=N)N1Cc2ccccc2-c2ccccc2C1 gave a melting point of 68 to 71 °C. In the case of COc1ccccc1NC(=O)Nc1nc(NCCC(=O)O)nc(Nc2ccccc2-c2ccccc2)n1, the melting point is reported as 196 to 205 °C. With N#CC1(c2ccccc2)CCN(Cc2ccccc2)CC1 the melting point was 73 to 74 °C. Cc1ccc(CC#N)c(OCc2ccc(OCc3nc(-c4ccccc4)oc3C)cc2)n1 showed a melting point of 122 to 123 °C. Compound Cc1c(-c2ncncc2Cl)ssc1=S has a melting point of 100 °C. With O=C(CC1COC1)N[C@H]1CC[C@H](CCN2CCN(c3nccc4c3CCO4)CC2)CC1 the melting point was 195 °C. In the case of Cc1ccc(-c2c(C#N)n(C)c(=O)c3cnccc23)cc1, the melting point is reported as 201 to 202 °C. In the case of COc1ccc(C(=O)Nc2cccnc2)cc1NC(=S)Nc1ccc(Cl)c(Cl)c1, the melting point is reported as 179 to 180 °C. For CCCc1nc2c(N)nc3cc(-c4ccccc4)ccc3c2n1CCCONC(=O)C(C)C, the melting point was 169 to 171 °C. O=NCNC1=Nc2ccc(Cl)cc2N(c2ccccc2)C(=O)C1 showed a melting point of 121 to 124 °C. In the case of CC(=O)c1ccc(CCC(=O)O)cc1, the melting point is reported as 118 to 119 °C. With COc1ccc(-c2ccc3c(c2)C=C(C(=O)Nc2ccc(CN(C)C4CCOCC4)cc2)CCS3(=O)=O)cc1 the melting point was 247 to 249 °C. For CCOC(=O)C1(O)C=CN=c2ccc3c(c21)NCN=3 (configuration not stated), the melting point was 315 to 316 °C. For CC(=O)[NH+]([O-])C[C@@H]1CN(c2cc(F)c(N3CCN(C(=O)CO)CC3)c(F)c2)C(=O)O1 (some centres not stated), the melting point was 100 to 105 °C. Compound CCCCNCCNC(=O)Nc1ccccc1C(=O)NCC1CCN(C(c2ccccc2)c2ccccc2)CC1 has a melting point of 148 to 150 °C. Work on CCCC1CCC(C#Cc2ccc(OCC)c(F)c2F)CC1 (configuration not stated) yielded a melting point of 64 °C. Work on CN(C)c1ccc(S(=O)(=O)N2CCCC2=O)cc1 yielded a melting point of 202 to 204 °C. For CC(C)(C)NC[C@H](Cc1ccc(OCc2ccccc2)cc1)NC(=O)OC(C)(C)C, the melting point was 77 to 79 °C. In the case of Cc1c(C(=O)Nc2ccc(Cl)c([N+](=O)[O-])c2)cnn1-c1ccc(C(F)(F)F)cc1, the melting point is reported as 206 to 208 °C. CCCCCCN(C[C@H]1CC[C@H](CN(CCCCCC)C(=O)Nc2ccc(N(C)C)cc2)CC1)C(=O)Nc1ccc(N(C)C)cc1 showed a melting point of 160 to 163 °C. For O=C(/C=C/c1ccc(C(F)(F)F)cc1Br)Nc1ccc2[nH]ccc2c1, the melting point was 205 to 207 °C.
